The text below walks through data of PubChem BioAssay AID1208 (EPA DSSTox, 2008).

For this series, the system named is rat chronic carcinogenicity bioassay, TD50. Kind of series: DSSTox (CPDBAS) Carcinogenic Potency Database Summary Rat Bioassay Results. Conditions: for outcome: TD50_Rat_Note: no positive results; for Potency: hits give low values. The text has this: The Carcinogenic Potency Database (CPDB) is a unique and widely used international resource of the results of over 6500 chronic, long-term animal cancer tests on over 1500 chemical substances. The CPDB provides easy access to the bioassay literature, with qualitative and quantitative analyses of both positive and negative experiments that have been published over the past 50 years in the general literature and by the National Cancer Institute/National Toxicology Program. The CPDB standardizes the diverse literature of cancer bioassays that vary widely in protocol, histopathological examination and nomenclature, and in the published author's choices of what information to provide in their papers. Results are reported in the CPDB for tests in rats, mice, hamsters, dogs, and nonhuman primates, and are based on the most positive result among all experiments for each sex-species. The DSSTox CPDBAS (all species) file incorporates data from the CPDB Summary Tables for the full list of over 1500 chemical substances tested in at least one species. Summary bioassay results for Rat (TD50, tumor sites, male, female, both sexes) are provided in the CPDB Summary Tables and the DSSTox CPDBAS file for over 1200 chemical substances.
TD50 is a standardized quantitative measure of carcinogenic potency (analogous to an LD50) and is reported in the CPDB Summary Table for each species. Activity Score for actives is computed by mapping of LOG10 (1/TD50_Rat_mmol) activity values spanning range [MIN, MAX] onto Integer 1-100 Activity Score range, where 100 is highest potency and 1 is lowest: Activity Score = 100 * INTEGER[(log10(1/Activity) - MIN)/(MAX - MIN)]. If activity is reported but no TD50_Rat_mmol value is computed, such as for a mixture, the Activity Score is assigned the activity value "50". […] Target sites are reported for each sex-species group with a positive result in the CPDB on the basis of a positive author's opinion for the particular site, using all results from both the general literature and NCI/NTP bioassays. If a chemical has two or more target sites listed, the results may be from different experiments, and a single site may be a target organ in more than one experiment, as well. Blank entry in TargetSites field indicates no results reported.

[1] abbreviates: TargetSites_Rat_Female: no positive results.
The mark [2] stands for this setting: TD50_Rat_Note: TD50 is harmonic mean of more than one positive test, TargetSites_Rat_Female: liver.
The mark [3] stands for this setting: TD50_Rat_Note: TD50 is harmonic mean of more than one positive test, TargetSites_Rat_Female: stomach.

The source made the active and inactive calls.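 How the source made its calls: active means at least one rat sex group has a carcinogenic potency value and tumor site recorded; inconclusive means only rat studies were judged inadequate by the national testing program; inactive means no potency or tumor site, with negative rat experiments.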

Take `O=C(O)CCCC/C=C(\c1ccccc1)c1cccnc1`: the outcome under setting [1] was “inactive; no positive results”. The same measure, in the same setting: as for `CCCCCCCCCCCC[N+](C)(C)[O-]`, the entry is “inactive; no positive results”.

For the compound `CCN(Cc1cccc(S(=O)(=O)O)c1)c1ccc(C(=C2C=CC(=[N+](CC)Cc3cccc(S(=O)(=O)[O-])c3)C=C2)c2ccc(S(=O)(=O)O)cc2)cc1`, the Potency (TargetSites_Rat_BothSexes: hematopoietic system) is 5640 mg/kg/day. Turning to `CN(C)C(=O)COC(=O)Cc1ccc(OC(=O)c2ccc(N=C(N)N)cc2)cc1`, the outcome is “inactive; no positive results”.

For `Clc1cccc(-c2cc(Cl)cc(Cl)c2)c1`, under “TD50_Rat_Note: TD50_Rat_mmol was not calculated for this mixture, but Activiity Score is assigned value of 50 to indicate active, TargetSites_Rat_Female: liver”, the Potency was 53.9 mg/kg/day.

Take `CN(C)CNc1nnc(/C=C/c2ccc([N+](=O)[O-])o2)o1`: for the setting “TargetSites_Rat_Female: lung, mammary gland, small intestine, stomach”, the Potency was 22.4 mg/kg/day. Regarding `CCN(N=O)C(N)=O`, the Potency (TD50_Rat_Note: TD50 is harmonic mean of more than one positive test, TargetSites_Rat_Female: nervous system, small intestine) is 0.948 mg/kg/day. With `CC(C)CN(N=O)C(N)=O`, the Potency (TargetSites_Rat_Female: small intestine) is 4.73 mg/kg/day. Turning to `ClC1=C(Cl)[C@]2(Cl)[C@@H]3[C@H]4C=CC(C4)[C@@H]3C1(Cl)C2(Cl)Cl`, the outcome under setting [1] is “inactive; no positive results”. Take `CCN(N=O)C(=O)NCCO`: for the setting “TD50_Rat_Note: TD50 is harmonic mean of more than one positive test, TargetSites_Rat_Female: mammary gland, skin, uterus”, the Potency is 0.522 mg/kg/day. Take `Brc1cc(Br)c(-c2cc(Br)c(Br)cc2Br)cc1Br`: the Potency under setting [2] is 0.322 mg/kg/day. For the compound `C[C@@H]1C[C@H](C)CN(S(=O)(=O)c2ccc(Cl)c(C(=O)O)c2)C1`, the Potency was 4.85 mg/kg/day. Consider `CCC[C@@H]1O[C@@H]2C[C@H]3[C@@H]4CCC5=CC(=O)C=C[C@]5(C)[C@H]4[C@@H](O)C[C@]3(C)[C@]2(C(=O)CO)O1`, for which the Potency was 0.291 mg/kg/day.

On to `COc1ccc([N+](=O)[O-])cc1N=Nc1c(O)c(C(=O)Nc2cccc([N+](=O)[O-])c2)cc2ccccc12`, for which the outcome under setting [1] was “inactive; no positive results”. On to `COc1ccccc1N1CCN(CCCNc2cc(=O)n(C)c(=O)n2C)CC1`, for which the outcome under setting [1] is “inactive; no positive results”. Regarding `NC(=O)c1ccccc1C(N)=O`, under setting [1], the outcome is “inactive; no positive results”.

On to `O=C(O)c1ccccc1`, for which the outcome was “inactive; no positive results”. For the same compound, the outcome under setting [1] is “inactive; no positive results”.

As to `CC(O)CO` (stereo unspecified), the outcome under setting [1] is “inactive; no positive results”. With `O.O.O.O.O.O.O.O.O=S(=O)([O-])[O-].O=S(=O)([O-])[O-].O=S(=O)([O-])[O-].[Cd+2].[Cd+2].[Cd+2]`, the outcome is “inactive; no positive results”. `O.[Cd+2].[Cl-].[Cl-]`: the outcome under setting [1] is “inactive; no positive results”.

Turning to `O=[N+]([O-])c1ccc2ccc3cccc4ccc1c2c34`, the Potency (TargetSites_Rat_Female: clitoral gland, hematopoietic system, mammary gland) was 3.33 mg/kg/day. Regarding `CN(C)CCOC(C)(c1ccccc1)c1ccccn1` (stereo unspecified), the Potency under setting [1] was 1610 mg/kg/day. With `CC1=NN(c2ccccc2)C(=O)C1`, the outcome under setting [1] was “inactive; no positive results”. On the same count and under the same terms, as for `COC(=O)C1=C(C)NC(C)=C(C(=O)OCCN2CCN(C(c3ccccc3)c3ccccc3)CC2)C1c1cccc([N+](=O)[O-])c1` (stereo unspecified), the entry is “inactive; no positive results”.

Take `Clc1ccccc1`: under setting [1], the Potency was 247 mg/kg/day. For the compound `S=C=NCCCc1ccccc1`, the outcome was “inactive; no positive results”. In the case of `CC(=O)Nc1nnc(-c2ccc([N+](=O)[O-])o2)s1`, the Potency (TargetSites_Rat_Female: hematopoietic system, kidney, lung, small intestine, stomach, vascular system) is 8.84 mg/kg/day. In the case of `Nc1cccc(N)c1`, the outcome is “inactive; no positive results”. Turning to `O=C(N[C@H](CO)[C@H](O)c1ccc([N+](=O)[O-])cc1)C(Cl)Cl`, the result under setting [1] was inactive. On to `O=[N+]([O-])c1cccc2cccnc12`, for which the Potency under setting [3] was 9.82 mg/kg/day. On to `C=CC(OC(C)=O)c1ccc2c(c1)OCO2` (stereo unspecified), for which the Potency (TD50_Rat_Note: TD50 is harmonic mean of more than one positive test) was 25 mg/kg/day. In the case of `Cc1ccc(/C(=C\CN2CCCC2)c2ccccn2)cc1`, under setting [1], the outcome was “inactive; no positive results”. `CNC[C@H](O)c1cccc(O)c1`: the outcome under setting [1] is “inactive; no positive results”.

In the case of `Nc1ccc([N+](=O)[O-])cc1`, the outcome under setting [1] was “inactive; no positive results”. As to `O=NN(CCO)C(=O)NCCCl`, the Potency (TD50_Rat_Note: TD50 is harmonic mean of more than one positive test, TargetSites_Rat_Female: kidney, liver) is 0.356 mg/kg/day. Take `CC(Cl)Cl`: the outcome under setting [1] is “inactive; no positive results”. Take `S=C([S-])NCCNC(=S)[S-].[Mn+2]`: where the note is “TargetSites_Rat_BothSexes: all tumor bearing animals”, the Potency is 157 mg/kg/day.

For `O=P1(NCCCl)OCCCN1CCCl` (stereo unspecified), the Potency (TD50_Rat_Note: positive test results only by intraperitoneal or intravenous injection, TargetSites_Rat_Female: uterus) was 0.739 mg/kg/day.

`CCN(CC)C(C)=O`: for the setting “TD50_Rat_Note: no positive results are statistically significant”, the Potency was 8.85 mg/kg/day. As to `O=P(O)(OCC(Br)CBr)OCC(Br)CBr` (stereo unspecified), the Potency (TD50_Rat_Note: TD50 is harmonic mean of more than one positive test, TargetSites_Rat_Female: esophagus, liver, small intestine, stomach) was 32 mg/kg/day. For `C=C(C)CCl`, the Potency under setting [3] was 113 mg/kg/day. `COc1cc(-c2ccc(N=Nc3c(S(=O)(=O)O)cc4cc(S(=O)(=O)O)cc(N)c4c3O)c(OC)c2)ccc1N=Nc1c(S(=O)(=O)O)cc2cc(S(=O)(=O)O)cc(N)c2c1O`: the Potency (TD50_Rat_Note: TD50 is harmonic mean of more than one positive test, TargetSites_Rat_Female: clitoral gland, ear Zymbals gland, hematopoietic system, large intestine, liver, oral cavity, skin, small intestine, ute) is 27.5 mg/kg/day.

In the case of `CC(=O)OC(OC(C)=O)c1ccc([N+](=O)[O-])o1`, the result under setting [1] was inactive. `CN1C(=O)C[C@@H](C(=O)N[C@@H](Cc2cnc[nH]2)C(=O)N2CCC[C@H]2C(N)=O)NC1=O`: the outcome under setting [1] was “inactive; no positive results”. As for `O=C1Nc2ccc(Cl)cc2C(c2ccccc2)=NC1O` (stereo unspecified), under setting [1], the outcome was “inactive; no positive results”. For the compound `NC(Cc1ccc(O)c(O)c1)C(=O)O` (stereo unspecified), the outcome is “inactive; no positive results”. `Oc1ccc2ccccc2c1N=Nc1ccccc1`: under setting [2], the Potency is 29.4 mg/kg/day. For `Cc1ccc(O)c(C(C)(C)C)c1`, the outcome is “inactive; no positive results”.

Take `CCCCCCCC/C=C\CCCCCCCC(=O)O`: under setting [1], the outcome was “inactive; no positive results”. Consider `P`, for which the outcome under setting [1] was “inactive; no positive results”. Turning to `C[C@]12C/C(=C/O)C(=O)C[C@@H]1CC[C@@H]1[C@@H]2CC[C@@]2(C)[C@H]1CC[C@]2(C)O`, the Potency (TargetSites_Rat_Female: liver, lung, skin) was 66.9 mg/kg/day. For `Cc1noc(NS(=O)(=O)c2ccc(N)cc2)c1C`, the outcome under setting [1] is “inactive; no positive results”. Turning to `C#C[C@]1(O)CC[C@H]2[C@@H]3CCc4cc(O)ccc4[C@H]3CC[C@@]21C`, the Potency (TargetSites_Rat_Female: liver) was 0.2 mg/kg/day. `C=CCc1ccc(O)c(OC)c1`: the outcome under setting [1] is “inactive; no positive results”. As to `C[C@@H]1C[C@H]2[C@@H]3CCC4=CC(=O)C=C[C@]4(C)[C@@]3(F)[C@@H](O)C[C@]2(C)[C@@]1(O)C(=O)CO`, the outcome is “inactive; no positive results”.

As to `ClC(Cl)(Cl)Cl`, the Potency (TD50_Rat_Note: TD50 is harmonic mean of more than one positive test, TargetSites_Rat_Female: liver, mammary gland) was 27.8 mg/kg/day. `COc1ccc(C(=O)/C(Br)=C\C(=O)O)cc1`: the Potency (TD50_Rat_Note: positive test results only by intraperitoneal or intravenous injection, TD50 is harmonic mean of more than one positive, TargetSites_Rat_Female: mammary gland) is 2.77 mg/kg/day. For `O=c1cc[nH]c(=S)[nH]1`, the Potency (TD50_Rat_Note: TD50 is harmonic mean of more than one positive test, TargetSites_Rat_Female: thyroid gland) was 11.9 mg/kg/day. As for `CC(C)=NNc1ncc(-c2ccc([N+](=O)[O-])o2)s1`, for the setting “TargetSites_Rat_Female: stomach”, the Potency is 6.05 mg/kg/day.

In the case of `CNCCc1ccc(OC(=O)C(C)C)c(OC(=O)C(C)C)c1`, under setting [1], the outcome was “inactive; no positive results”.

In the case of `CC(C)(C)NCC(O)c1cc(O)cc(O)c1` (stereo unspecified), the Potency (TargetSites_Rat_Female: mesovarium) is 410 mg/kg/day. On to `CC(C(=O)O)c1cccc(C(=O)c2ccccc2)c1` (stereo unspecified), for which the outcome was “inactive; no positive results”. For the compound `COc1ccc(N)c(C)c1`, the Potency (TD50_Rat_Note: TD50 is harmonic mean of more than one positive test, TargetSites_Rat_Female: urinary bladder) is 470 mg/kg/day.

On to `O=C1CCCO1`, for which, under setting [1], the outcome was “inactive; no positive results”.

In the case of `CCN(CC)C(=O)c1cccc(C)c1`, the outcome under setting [1] is “inactive; no positive results”.
